Measured values from PubChem BioAssay AID330 (DTP/NCI, 2004).
Where “and” joins values, the source holds several entries; their conditions need not be identical. Equal values may be shown once. Inconclusive results and toxic doses are left out. The calls were made as follows: active = survival T/C of 150% or more; inactive = T/C below 125% in these data.

System: P388 leukemia ip, CD2F1 mice, survival T/C
Assay: NCI In Vivo Anticancer Drug Screen. Data for tumor model P388 Leukemia (intraperitoneal) in CD2F1 (CDF1) mice
Settings: endpoint: median survival time, higher = longer survival
Procedure, shortened: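 Mice carrying the transplanted tumor received test compound or vehicle. Survival was recorded in each group, and the value is the treated-group measurement divided by that of the vehicle-treated control group.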

[1] = dose: 50.0 mg/kg/injection, schedule: Q01DX009 (ip), vehicle: Klucel (hydroxypropylcellulose) (HPC)
[2] = dose: 100.0 mg/kg/injection, schedule: Q01DX009 (ip), vehicle: Klucel (hydroxypropylcellulose) (HPC)
[3] = dose: 200.0 mg/kg/injection, schedule: Q01DX009 (ip), vehicle: Klucel (hydroxypropylcellulose) (HPC)
[4] = dose: 12.5 mg/kg/injection, schedule: Q01DX009 (ip), vehicle: saline with Tween-80
[5] = dose: 25.0 mg/kg/injection, schedule: Q01DX009 (ip), vehicle: saline with Tween-80
[6] = dose: 50.0 mg/kg/injection, schedule: Q01DX009 (ip), vehicle: saline with Tween-80
[7] = dose: 100.0 mg/kg/injection, schedule: Q04DX002 (ip), vehicle: saline with Tween-80
[8] = dose: 200.0 mg/kg/injection, schedule: Q04DX002 (ip), vehicle: saline with Tween-80
[9] = dose: 400.0 mg/kg/injection, schedule: Q04DX002 (ip), vehicle: saline with Tween-80
[10] = dose: 100.0 mg/kg/injection, schedule: Q01DX009 (ip), vehicle: saline with Tween-80
[11] = dose: 60.0 mg/kg/injection, schedule: Q01DX005 (ip), vehicle: saline with Tween-80
[12] = dose: 120.0 mg/kg/injection, schedule: Q01DX005 (ip), vehicle: saline with Tween-80

Measured: T/C

NC(=N\O)/C(N)=N\O
inactive: [1] 100 % of control | [2] 98 % of control | [3] 106 % of control

NC(=Nc1ccccc1)Nc1ccccc1
inactive: [4] 99 % of control | [5] 104 % of control | [6] 102 % of control

CCOC(=O)C1=CNN=CC12C(=O)NC(=Nc1ccccc1)N2c1ccccc1 (configuration not stated)
inactive: [7] 93 % of control | [8] 104 % of control | [9] 95 % of control

O=C1NC(=O)C2CCCCC12 (configuration not stated)
inactive: [4] 109 % of control | [5] 102 % of control | [6] 100 % of control | [10] 100 % of control

O=C(Oc1ccccc1)N1CCCC(O)C1 (configuration not stated)
inactive: [1] 96 % of control | [2] 105 % of control | [3] 100 % of control

O=[N+]([O-])O.[Mn].c1ccc(/C2=c3\cc/c([n-]3)=C(\c3ccccc3)c3ccc([n-]3)/C(c3ccccc3)=c3/cc/c([n-]3)=C(\c3ccccc3)c3ccc2[n-]3)cc1
inactive: dose: 25.0 mg/kg/injection, schedule: Q04DX002 (ip), vehicle: saline with Tween-80 100 % of control | dose: 50.0 mg/kg/injection, schedule: Q04DX002 (ip), vehicle: saline with Tween-80 94 % of control | dose: 100.0 mg/kg/injection, schedule: Q04DX002 (ip), vehicle: Klucel (hydroxypropylcellulose) (HPC) 108 % of control | [7] 94 % of control | dose: 400.0 mg/kg/injection, schedule: Q04DX002 (ip), vehicle: Klucel (hydroxypropylcellulose) (HPC) 108 % of control

Cc1cc(C)c(S(=O)(=O)n2ccnc2)c(C)c1
inactive: dose: 25.0 mg/kg/injection, schedule: Q01DX009 (ip), vehicle: saline 111 % of control | dose: 50.0 mg/kg/injection, schedule: Q01DX009 (ip), vehicle: saline 97 % of control | dose: 100.0 mg/kg/injection, schedule: Q01DX009 (ip), vehicle: saline 103 % of control | dose: 200.0 mg/kg/injection, schedule: Q01DX009 (ip), vehicle: saline 106 % of control

CC(C)(C)c1ccc(C2=NNC(C(F)(F)F)=NN2)cc1
inactive: [6] 110 % of control | [10] 104 % of control | dose: 200.0 mg/kg/injection, schedule: Q01DX009 (ip), vehicle: saline with Tween-80 119 % of control

CSc1cccc(NC(=O)Nc2ccc(S(N)(=O)=O)cc2)c1
inactive: [1] 92 % of control | [2] 87 % of control

COc1cc(C(c2cc3c(cc2O)OCO3)N2CCOCC2)cc(OC)c1OC (configuration not stated)
inactive: [11] 107 % of control | [12] 111 % of control

CCOC(=O)N1CCc2cc(OC)c(OC)cc2/C1=C/c1ccsc1
inactive: dose: 50.0 mg/kg/injection, schedule: Q01DX005 (ip), vehicle: Klucel (hydroxypropylcellulose) (HPC) 105 % of control | dose: 100.0 mg/kg/injection, schedule: Q01DX005 (ip), vehicle: Klucel (hydroxypropylcellulose) (HPC) 102 % of control | dose: 200.0 mg/kg/injection, schedule: Q01DX005 (ip), vehicle: Klucel (hydroxypropylcellulose) (HPC) 96 % of control

Cc1ccc2c(c1Oc1ccc(S(N)(=O)=O)cc1)C(=O)c1ccccc1C2=O
inactive: dose: 100.0 mg/kg/injection, schedule: Q04DX003 (ip), vehicle: saline with Tween-80 100 % of control | dose: 200.0 mg/kg/injection, schedule: Q04DX003 (ip), vehicle: saline with Tween-80 100 % of control | dose: 400.0 mg/kg/injection, schedule: Q04DX003 (ip), vehicle: saline with Tween-80 95 % of control

CCn1c(=O)c2cn[nH]c2n(CC)c1=O
inactive: [1] 108 % of control | [2] 104 % of control

COC(=O)C(=O)C(C#N)c1ccc(OC)c(OC)c1 (configuration not stated)
inactive: [11] 99 % of control | [12] 104 % of control | dose: 240.0 mg/kg/injection, schedule: Q01DX005 (ip), vehicle: saline with Tween-80 95 % of control

CC(=O)C1C(C=C(C)C)C1(C)C (configuration not stated)
inactive: [7] 96 % of control | [8] 106 % of control | [9] 101 % of control

CN(C)c1cc(C(=O)O)nc(C(=O)O)c1
inactive: dose: 25.0 mg/kg/injection, schedule: Q01DX001 (ip), vehicle: Klucel (hydroxypropylcellulose) (HPC) 101 % of control | dose: 50.0 mg/kg/injection, schedule: Q01DX001 (ip), vehicle: Klucel (hydroxypropylcellulose) (HPC) 107 % of control | dose: 100.0 mg/kg/injection, schedule: Q01DX001 (ip), vehicle: Klucel (hydroxypropylcellulose) (HPC) 107 % of control and 87 % of control

COC(=O)C([NH-])c1ccccc1.COC(=O)C([NH-])c1ccccc1.[Cl][Pd][Cl] (configuration not stated)
inactive: dose: 100.0 mg/kg/injection, schedule: Q04DX003 (ip), vehicle: saline 108 % of control | dose: 200.0 mg/kg/injection, schedule: Q04DX003 (ip), vehicle: saline 104 % of control | dose: 400.0 mg/kg/injection, schedule: Q04DX003 (ip), vehicle: saline 103 % of control
